Experiments:
[1] = system: antibodies in sera from SARS patients (sera 1a, 1b, 2, 6, 37, 62, London, SARS-yellow, SARS-green); type: binding, human; set-up: Binding of serum 6 to linear peptides of protein X1 of SARS-CoV Urbani / Binding of serum 37 to linear peptides of protein X1 of SARS-CoV Urbani / Binding of serum 6 to looped/cyclic peptide (PEPSCAN-ELISA) / Binding of serum 37 to looped/cyclic peptide (PEPSCAN-ELISA) / Binding of serum 37 to looped/cyclic peptides of protein X1 of SARS-CoV Urbani / Binding of serum 6 to linear peptides of protein X2 / Binding of serum 37 to linear peptides of protein X2 / Binding of serum 37 to looped/cyclic peptides of protein X2 of SARS-CoV Urbani / Binding of serum 6 to linear peptides of protein M of SARS-CoV Urbani / Binding of serum 37 to linear peptides of protein M of SARS-CoV Urbani / Binding of serum 6 to looped/cyclic peptides of protein M of SARS-CoV Urbani / Binding of serum 37 to looped/cyclic peptides of protein M of SARS-CoV Urbani / Binding of serum 6 to linear peptides of protein X3 of SARS-CoV Urbani / Binding of serum 37 to linear peptides of protein X3 of SARS-CoV Urbani / Binding of serum 37 to looped/cyclic peptides of protein X3 of SARS-CoV Urbani / Binding of serum 6 to linear peptides of protein X4 of SARS-CoV Urbani / Binding of serum 37 to linear peptides of protein X4 of SARS-CoV Urbani / Binding of serum 37 to looped/cyclic peptides of protein X4 of SARS-CoV Urbani / Binding of serum 6 to linear peptides of protein X5 of SARS-CoV Urbani / Binding of serum 37 to linear peptides of protein X5 of SARS-CoV Urbani / Binding of serum 37 to looped/cyclic peptides of protein X5 of SARS-CoV Urbani / Binding of serum 6 to linear peptides of protein N of SARS-CoV Urbani / Binding of serum 37 to linear peptides of protein N of SARS-CoV Urbani / Binding of serum 6 to linear peptide (PEPSCAN-ELISA) / Binding of serum 1a to looped/cyclic peptides of protein N of SARS-CoV Urbani / Binding of serum 1b to looped/cyclic peptides of protein N of SARS-CoV Urbani / Binding of serum 2 to looped/cyclic peptides of protein N of SARS-CoV Urbani / Binding of serum 6 to looped/cyclic peptides of protein N of SARS-CoV Urbani / Binding of serum 37 to looped/cyclic peptides of protein N of SARS-CoV Urbani / Binding of serum 62 to looped/cyclic peptides of protein N of SARS-CoV Urbani / Binding of serum London to looped/cyclic peptides of protein N of SARS-CoV Urbani / Binding of serum SARS-green to looped/cyclic peptides of protein N of SARS-CoV Urbani: unit not given here
[2] = system: control sera (pooled serum of ten healthy LUMC hospital workers; commercial negative donor pooled serum from the Dutch bloodbank); type: binding, human; set-up: Binding of Control serum LUMC to linear peptides / Binding of Control serum Blood-bank to linear peptides / Binding of Control serum LUMC to looped peptides / Binding of Control Serum Blood-Bank to Looped peptides / Binding of Control serum LUMC to linear peptides of the protein M of SARS-CoV Urbani / Binding of Control serum Blood-bank to linear peptides of the protein M of SARS-CoV Urbani / Binding of Control serum LUMC to looped peptides of the protein M of SARS-CoV Urbani / Binding of Control Serum Blood-Bank to Looped peptides of the protein M of SARS-CoV Urbani: unit not given here
[3] = system: rabbit serum obtained by immunizing a rabbit with the SARS-CoV strain Frankfurt 1; type: binding; set-up: Binding of a rabbit serum to linear peptides / Binding of a rabbit serum to looped peptides / Rabbit serum linear peptides / Rabbit serum looped peptides / Binding of a rabbit serum to linear peptides of protein N of SARS-CoV Urbani (Rabbit serum linear peptides) / Binding of a rabbit serum to looped/cyclic peptides of protein N of SARS-CoV Urbani (Rabbit serum looped peptides): unit not given here

For LLVAAGMEAQFLYLY, the “Binding of serum 1a to linear peptides of protein X1 of SARS-CoV Urbani” value [1] was 0.8, the “Binding of serum 1a to looped/cyclic peptide (PEPSCAN-ELISA)” value [1] was 0.6 and the “Binding of serum 1b to linear peptides of protein X1 of SARS-CoV Urbani” value [1] was 0.7. The “Binding of serum 1b to looped/cyclic peptide (PEPSCAN-ELISA)” value [1] was 0.5, the “Binding of serum 2 to linear peptides of protein X1 of SARS-CoV Urbani” value [1] was 0.6 and the “Binding of serum 2 to looped/cyclic peptide (PEPSCAN-ELISA)” value [1] was 0.6. The “Binding of serum 6 to linear peptides of protein X1 of SARS-CoV Urbani” value [1] was 0.5, the “Binding of serum 6 to looped/cyclic peptide (PEPSCAN-ELISA)” value [1] was 0.3 and the “Binding of serum 37 to linear peptides of protein X1 of SARS-CoV Urbani” value [1] was 0.6. For the same sequence, the “Binding of serum 37 to looped/cyclic peptide (PEPSCAN-ELISA)” value [1] was 0.6, the “Binding of serum 62 to linear peptides of protein X1 of SARS-CoV Urbani” value [1] was 0.5 and the “Binding of serum 62 to looped/cyclic peptide (PEPSCAN-ELISA)” value [1] was 0.6. The “Binding of serum London to linear peptides of protein X1 of SARS-CoV Urbani” value [1] was 0.3, the “Binding of serum London to looped/cyclic peptide (PEPSCAN-ELISA)” value [1] was 0.2 and the “Binding of serum SARS-green to linear peptides of protein X1 of SARS-CoV Urbani” value [1] was 0.1. The “Binding of serum SARS-green to looped/cyclic peptide (PEPSCAN-ELISA)” value [1] was 0.4, the “Binding of serum SARS-yellow to linear peptides of protein X1 of SARS-CoV Urbani” value [1] was 0.4 and the “Binding of serum SARS-yellow to looped/cyclic peptide (PEPSCAN-ELISA)” value [1] was 0.5. For the same sequence, the “Binding of Control Serum Blood-Bank to Looped peptides” value [2] was 0.5, the “Binding of Control serum Blood-bank to linear peptides” value [2] was 0.5 and the “Binding of Control serum LUMC to linear peptides” value [2] was 0.7. For the same sequence, the “Binding of Control serum LUMC to looped peptides” value [2] was 0.6, the “Binding of a rabbit serum to linear peptides” value [3] was 0.2 and the “Binding of a rabbit serum to looped peptides” value [3] was 0.5.
With LPFGWLVIGVAFLAV the “Binding of serum 1a to linear peptides of protein X1 of SARS-CoV Urbani” value [1] was 0.8, the “Binding of serum 1a to looped/cyclic peptide (PEPSCAN-ELISA)” value [1] was 0.5 and the “Binding of serum 1b to linear peptides of protein X1 of SARS-CoV Urbani” value [1] was 0.6. For the same sequence, the “Binding of serum 1b to looped/cyclic peptide (PEPSCAN-ELISA)” value [1] was 0.3, the “Binding of serum 2 to linear peptides of protein X1 of SARS-CoV Urbani” value [1] was 0.7 and the “Binding of serum 2 to looped/cyclic peptide (PEPSCAN-ELISA)” value [1] was 0.4. For the same sequence, the “Binding of serum 6 to linear peptides of protein X1 of SARS-CoV Urbani” value [1] was 0.5, the “Binding of serum 6 to looped/cyclic peptide (PEPSCAN-ELISA)” value [1] was 0.3 and the “Binding of serum 37 to linear peptides of protein X1 of SARS-CoV Urbani” value [1] was 0.7. The “Binding of serum 37 to looped/cyclic peptide (PEPSCAN-ELISA)” value [1] was 0.6, the “Binding of serum 62 to linear peptides of protein X1 of SARS-CoV Urbani” value [1] was 0.8 and the “Binding of serum 62 to looped/cyclic peptide (PEPSCAN-ELISA)” value [1] was 0.6. For the same sequence, the “Binding of serum London to linear peptides of protein X1 of SARS-CoV Urbani” value [1] was 0.3, the “Binding of serum London to looped/cyclic peptide (PEPSCAN-ELISA)” value [1] was 0.2 and the “Binding of serum SARS-green to linear peptides of protein X1 of SARS-CoV Urbani” value [1] was 0.3. For the same sequence, the “Binding of serum SARS-green to looped/cyclic peptide (PEPSCAN-ELISA)” value [1] was 0.3, the “Binding of serum SARS-yellow to linear peptides of protein X1 of SARS-CoV Urbani” value [1] was 0.7 and the “Binding of serum SARS-yellow to looped/cyclic peptide (PEPSCAN-ELISA)” value [1] was 0.3. For the same sequence, the “Binding of Control Serum Blood-Bank to Looped peptides” value [2] was 0.5, the “Binding of Control serum Blood-bank to linear peptides” value [2] was 0.7 and the “Binding of Control serum LUMC to linear peptides” value [2] was 0.7. The “Binding of Control serum LUMC to looped peptides” value [2] was 0.4, the “Binding of a rabbit serum to linear peptides” value [3] was 2.0 and the “Binding of a rabbit serum to looped peptides” value [3] was 0.5.
With LPFHRWHTMVQTCTP the “Binding of serum 1a to linear peptides of protein X5 of SARS-CoV Urbani” value [1] was 0.8, the “Binding of serum 1a to looped/cyclic peptides of protein X5 of SARS-CoV Urbani” value [1] was 0.5 and the “Binding of serum 1b to linear peptides of protein X5 of SARS-CoV Urbani” value [1] was 0.7. For the same sequence, the “Binding of serum 1b to looped/cyclic peptides of protein X5 of SARS-CoV Urbani” value [1] was 0.4, the “Binding of serum 2 to linear peptides of protein X5 of SARS-CoV Urbani” value [1] was 0.9 and the “Binding of serum 2 to looped/cyclic peptides of protein X5 of SARS-CoV Urbani” value [1] was 0.5. The “Binding of serum 6 to linear peptides of protein X5 of SARS-CoV Urbani” value [1] was 0.6, the “Binding of serum 6 to looped/cyclic peptides of protein X5 of SARS-CoV Urbani” value [1] was 0.3 and the “Binding of serum 37 to linear peptides of protein X5 of SARS-CoV Urbani” value [1] was 0.8. For the same sequence, the “Binding of serum 37 to looped/cyclic peptides of protein X5 of SARS-CoV Urbani” value [1] was 0.4, the “Binding of serum 62 to linear peptides of protein X5 of SARS-CoV Urbani” value [1] was 0.8 and the “Binding of serum 62 to looped/cyclic peptides of protein X5 of SARS-CoV Urbani” value [1] was 0.3. For the same sequence, the “Binding of serum London to linear peptides of protein X5 of SARS-CoV Urbani” value [1] was 0.9, the “Binding of serum London to looped/cyclic peptides of protein X5 of SARS-CoV Urbani” value [1] was 0.2 and the “Binding of serum SARS-green to linear peptides of protein X5 of SARS-CoV Urbani” value [1] was 0.6. For the same sequence, the “Binding of serum SARS-green to looped/cyclic peptides of protein X5 of SARS-CoV Urbani” value [1] was 0.3, the “Binding of serum SARS-yellow to linear peptides of protein X5 of SARS-CoV Urbani” value [1] was 0.4 and the “Binding of serum SARS-yellow to looped/cyclic peptides of protein X5 of SARS-CoV Urbani” value [1] was 0.2. The “Binding of Control Serum Blood-Bank to Looped peptides” value [2] was 0.5, the “Binding of Control serum Blood-bank to linear peptides” value [2] was 0.6 and the “Binding of Control serum LUMC to linear peptides” value [2] was 0.5. For the same sequence, the “Binding of Control serum LUMC to looped peptides” value [2] was 0.4, the “Rabbit serum linear peptides” value [3] was 0.5 and the “Rabbit serum looped peptides” value [3] was 0.3.
For LQELLIQQWIQFMMS, the “Binding of serum 1a to linear peptides of protein X2” value [1] was 0.7, the “Binding of serum 1a to looped/cyclic peptides of protein X2 of SARS-CoV Urbani” value [1] was 0.6 and the “Binding of serum 1b to linear peptides of protein X2” value [1] was 0.6. The “Binding of serum 1b to looped/cyclic peptides of protein X2 of SARS-CoV Urbani” value [1] was 0.5, the “Binding of serum 2 to linear peptides of protein X2” value [1] was 0.3 and the “Binding of serum 2 to looped/cyclic peptides of protein X2 of SARS-CoV Urbani” value [1] was 0.3. For the same sequence, the “Binding of serum 6 to linear peptides of protein X2” value [1] was 0.3, the “Binding of serum 6 to looped/cyclic peptides of protein X2 of SARS-CoV Urbani” value [1] was 0.2 and the “Binding of serum 37 to linear peptides of protein X2” value [1] was 0.5. For the same sequence, the “Binding of serum 37 to looped/cyclic peptides of protein X2 of SARS-CoV Urbani” value [1] was 0.4, the “Binding of serum 62 to linear peptides of protein X2” value [1] was 0.5 and the “Binding of serum 62 to looped/cyclic peptides of protein X2 of SARS-CoV Urbani” value [1] was 0.6. The “Binding of serum London to linear peptides of protein X2” value [1] was 0.4, the “Binding of serum London to looped/cyclic peptides of protein X2 of SARS-CoV Urbani” value [1] was 0.2 and the “Binding of serum SARS-green to linear peptides of protein X2” value [1] was 0.5. For the same sequence, the “Binding of serum SARS-green to looped/cyclic peptides of protein X2 of SARS-CoV Urbani” value [1] was 0.2, the “Binding of serum SARS-yellow to linear peptides of protein X2” value [1] was 0.6 and the “Binding of serum SARS-yellow to looped/cyclic peptides of protein X2 of SARS-CoV Urbani” value [1] was 0.3. The “Binding of Control Serum Blood-Bank to Looped peptides” value [2] was 0.6, the “Binding of Control serum Blood-bank to linear peptides” value [2] was 0.5 and the “Binding of Control serum LUMC to linear peptides” value [2] was 0.3. For the same sequence, the “Binding of Control serum LUMC to looped peptides” value [2] was 0.6, the “Binding of a rabbit serum to linear peptides” value [3] was 0.3 and the “Binding of a rabbit serum to looped peptides” value [3] was 0.3.

— patent US20070128217A1 (priority 2003, published 2007)
